Source: EP1202975B1, “SUBSTITUTED POLYCYCLIC ARYL AND HETEROARYL PYRAZINONES USEFUL FOR SELECTIVE INHIBITION OF THE COAGULATION CASCADE” (Pharmacia Corporation, priority 1999, dated 2000)
Like-named read-outs stand apart in the source and are kept apart here.

Key:
TF-VIIa = molecular target: T1, TF-VIIa (Homo sapiens, UniProt P08709); test: TF-VIIa Assay; type: biochemical; conditions: for IC50: read-out: IC50 or % Inhibition TF-VIIa (30 µM), cells given as a plain number (IC50)
T1 construct: 2nM recombinant human factor VIIa; purchased American Diagnostica, Greenwich CT; host or cells: soluble TF made in house in E. coli

Human factor Xa [1] = molecular target: T2, Human factor Xa (Homo sapiens, UniProt P00742); test: Xa Assay
Human factor Xa [2] = molecular target: T2, Human factor Xa
[3] = read-out: IC50 or % Inhibition Factor Xa (30 µM), cells given as a plain number (IC50)
[4] = cells given as a plain number (IC50)

T1 sequence (P08709 213-466 limits assumed): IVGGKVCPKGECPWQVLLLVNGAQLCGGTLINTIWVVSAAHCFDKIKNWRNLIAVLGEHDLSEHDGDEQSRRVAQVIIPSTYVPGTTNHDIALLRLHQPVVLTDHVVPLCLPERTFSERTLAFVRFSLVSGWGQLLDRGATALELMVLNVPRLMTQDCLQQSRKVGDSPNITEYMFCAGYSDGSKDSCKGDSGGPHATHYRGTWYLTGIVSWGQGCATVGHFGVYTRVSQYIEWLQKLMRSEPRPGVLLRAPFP
T1 sequence (P08709 61-212 limits assumed): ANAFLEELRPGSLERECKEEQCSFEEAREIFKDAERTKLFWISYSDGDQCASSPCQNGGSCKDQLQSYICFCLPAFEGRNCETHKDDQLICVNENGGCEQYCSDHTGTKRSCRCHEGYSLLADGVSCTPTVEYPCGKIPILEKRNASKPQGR
T1 sequence (P13726 33-251 partner limits assumed): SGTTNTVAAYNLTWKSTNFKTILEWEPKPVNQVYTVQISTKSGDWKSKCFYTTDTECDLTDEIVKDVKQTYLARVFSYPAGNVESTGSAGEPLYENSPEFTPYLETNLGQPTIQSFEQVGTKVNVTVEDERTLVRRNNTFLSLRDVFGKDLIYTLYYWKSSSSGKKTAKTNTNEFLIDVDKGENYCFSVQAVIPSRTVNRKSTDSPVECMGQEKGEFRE
T2 sequence (P00742 235-488 limits assumed): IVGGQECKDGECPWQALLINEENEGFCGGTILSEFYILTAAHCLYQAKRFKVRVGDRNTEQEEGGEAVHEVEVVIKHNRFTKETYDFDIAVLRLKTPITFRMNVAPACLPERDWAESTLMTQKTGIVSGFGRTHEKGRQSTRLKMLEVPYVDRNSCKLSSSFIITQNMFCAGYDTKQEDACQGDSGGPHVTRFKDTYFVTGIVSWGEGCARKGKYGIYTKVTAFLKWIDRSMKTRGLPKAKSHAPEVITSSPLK
T2 sequence (P00742 41-179 limits assumed): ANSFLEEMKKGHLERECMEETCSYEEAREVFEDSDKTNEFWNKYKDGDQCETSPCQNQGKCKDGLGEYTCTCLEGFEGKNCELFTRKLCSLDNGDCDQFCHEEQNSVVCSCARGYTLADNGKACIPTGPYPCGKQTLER

| SMILES | % Inhibition TF-VIIa (100 µM) (TF-VIIa) | % Inhibition Factor Xa (100 µM) (Human factor Xa [2]) | other results |
| --- | --- | --- | --- |
| N=C(N)c1ccc(CNC(=O)Cn2c(-c3ccccc3Cl)c(Cl)nc(NCc3ccccc3)c2=O)cc1 [1515-04] | – | – | IC50 (TF-VIIa): 5.2 µM; IC50 (Human factor Xa [1]; [3]): > 30 µM |
| COc1cccc(-c2c(Cl)nc(NCc3ccccc3)c(=O)n2CC(=O)NCc2ccc(C(=N)N)cc2)c1 [1515-05] | – | – | IC50 (TF-VIIa): 4 µM; IC50 (Human factor Xa [1]; [3]): > 30 µM |
| N=C(N)c1ccc(CNC(=O)Cn2c(-c3ccccc3)c(Cl)nc(N3CCC3)c2=O)cc1 [1522-28] | – | – | IC50 (Human factor Xa [1]; [3]): > 30 µM |
| Nc1ccc(CNC(=O)Cn2c(Cc3ccccc3)c(Cl)nc(NCCc3ccccc3)c2=O)cn1 [Example 9] | – | – | IC50 or % Inhibition Factor Xa (30 µM) (Human factor Xa [1]; [4]): >0 µM |
| Nc1ccc(CNC(=O)Cn2c(CCc3ccccc3)c(Cl)nc(NCCc3ccccc3)c2=O)cn1 [Example 10, 3-(2-Phenylethylamino)-5-chloro-6-phenethyl-1-(2-amino-5-methylcarboxamidomethylpyridinyl)pyrazinone] | – | – | IC50 or % Inhibition Factor Xa (30 µM) (Human factor Xa [1]; [4]): >0 µM |
| N=C(N)c1ccc(CNC(=O)Cn2c(-c3ccccc3)c(Cl)nc(CN)c2=O)cc1 [Example 18] | – | – | IC50 or % Inhibition Factor Xa (30 µM) (Human factor Xa [1]; % inhibition at 30 µM): 0% |
| Nc1cccc(-c2c(Cl)nc(NC3CCC3)c(=O)n2CC(=O)NCCCc2ccnc(N)n2)c1 [Example 26] | – | – | IC50 or % Inhibition Factor Xa (30 µM) (Human factor Xa [1]; % inhibition at 30 µM): 5% |
| N=C(N)c1ccc(CNC(=O)Cn2c(-c3ccccc3)c(Cl)nc(NCCN)c2=O)cc1 [Example 44] | – | – | IC50 or % Inhibition Factor Xa (30 µM) (Human factor Xa [1]; % inhibition at 30 µM): 4% |
| N=C(N)c1ccc(CNC(=O)Cn2c(-c3ccccc3)c(Cl)nc(NCCCN)c2=O)cc1 [Example 45] | – | – | IC50 or % Inhibition Factor Xa (30 µM) (Human factor Xa [1]; % inhibition at 30 µM): 9% |
| N=C(N)c1ccc(CNC(=O)Cn2c(-c3ccccc3)c(Cl)nc(NCCCCN)c2=O)cc1 [Example 46] | – | – | IC50 or % Inhibition Factor Xa (30 µM) (Human factor Xa [1]; % inhibition at 30 µM): 10% |
| CC(C)Nc1nc(Cl)c(-c2cccc([N+](=O)[O-])c2)n(CC(=O)NCc2ccc(C#N)cc2)c1=O [Example 59] | – | – | IC50 or % Inhibition Factor Xa (30 µM) (Human factor Xa [1]; % inhibition at 30 µM): 2% |
| CC(=O)Nc1cccc(-c2c(Cl)nc(NCCc3ccccc3)c(=O)n2CC(=O)NCc2ccc(C(=N)N)cc2)c1 [Example 100] | – | – | IC50 (Human factor Xa [1]): > 30 µM |
| CS(=O)(=O)Nc1cccc(-c2c(Cl)nc(NCCc3ccccc3)c(=O)n2CC(=O)NCc2ccc(C(=N)N)cc2)c1 [Example 101] | – | – | IC50 (Human factor Xa [1]): > 30 µM |
| N=C(N)c1ccc(CNC(=O)Cn2c(-c3ccccc3)cnc(NS(=O)(=O)c3ccccc3)c2=O)cc1 [Example 105] | – | – | IC50 or % Inhibition Factor Xa (30 µM) (Human factor Xa [1]; % inhibition at 30 µM): 5% |
| O=C(Cn1c(CCc2ccccc2)c(Cl)nc(NCc2ccccc2)c1=O)NCCc1ccncc1 [Example E-0065] | 0% | 0% | – |
| O=C(Cn1c(CCc2ccccc2)c(Cl)nc(NCCc2ccccc2)c1=O)NCCc1ccncc1 [Example E-0066] | 0% | 0% | – |
| O=C(Cn1c(CCc2ccccc2)c(Cl)nc(NCCc2cccc(Cl)c2)c1=O)NCCc1ccncc1 [Example E-0067] | 0% | 0% | – |
| O=C(Cn1c(CCc2ccccc2)c(Cl)nc(NCCc2ccc(Cl)cc2)c1=O)NCCc1ccncc1 [Example E-0068] | 0% | 0% | – |
| O=C(Cn1c(CCc2ccccc2)c(Cl)nc(NCCc2cccnc2)c1=O)NCCc1ccncc1 [Example E-0069] | 0% | 0% | – |
| O=C(Cn1c(CCc2ccccc2)c(Cl)nc(NCCc2ccncc2)c1=O)NCCc1ccncc1 [Example E-0070] | 0% | 0% | – |
| O=C(Cn1c(CCc2ccccc2)c(Cl)nc(NCCN2CCOCC2)c1=O)NCCc1ccncc1 [Example E-0071] | 0% | 0% | – |
| O=C(Cn1c(CCc2ccccc2)c(Cl)nc(NCc2ccncc2)c1=O)NCCc1ccncc1 [Example E-0072] | 0% | 0% | – |
| COc1ccc(-c2c(Cl)nc(NCc3ccccc3)c(=O)n2CC(=O)NCCc2ccncc2)cc1 [Example E-0097] | 0% | 3% | – |
| COc1ccc(-c2c(Cl)nc(NCc3ccccc3)c(=O)n2CC(=O)NCCc2cccnc2)cc1 [Example E-0098] | 0% | 2% | – |
| COc1ccc(-c2c(Cl)nc(NCCc3cccc(Cl)c3)c(=O)n2CC(=O)NCCc2cccnc2)cc1 [Example E-0104] | 3% | 5% | – |
| COc1ccc(-c2c(Cl)nc(NCCc3ccc(Cl)cc3)c(=O)n2CC(=O)NCCc2cccnc2)cc1 [Example E-0107] | 4% | 6% | – |
| O=C(Cn1c(-c2ccc(-c3ccccc3)cc2)c(Cl)nc(NCc2ccccc2)c1=O)NCCc1cccnc1 [Example E-0110] | 0% | 3% | – |
| CSc1ccc(N)cc1-c1c(Cl)nc(NC(C)C)c(=O)n1CC(=O)NCc1ccc(C(=N)N)cc1 [compound 76] | – | – | IC50 or % Inhibition Factor Xa (30 µM) (Human factor Xa [1]; % inhibition at 30 µM): 0% |
| CNc1cccc(-c2c(Cl)nc(NCCc3ccccc3)c(=O)n2CC(=O)NCc2ccc(C(=N)N)cc2)c1 [compound 95] | – | – | IC50 (Human factor Xa [1]; [3]): > 30 µM |
